From US12590098B2, “Pyrimido pyrimidinone compound and pharmaceutical composition comprising the same” (AXCESO BIOPHARMA CO., LTD., priority 2020, dated 2026)

What was measured:
PD-L1 expression [1] = assay: PD-L1 promoter-luciferase reporter assay in A549 pGL4.14-PD-L1 cell line; format: cell-based; conditions: Homo sapiens, IFNγ (50 ng/ml) inducer, luminometer, read-out: PD-L1 expression inhibition rate in A549 (%)
Description: The PD-L1 promoter gene region was inserted into the pGL4.14-[luc2/Hygro] vector (promega, Madison, WI) in the following way to prepare a promoter-reporter construct for measuring gene transcription activity.
After preparing primer including KpnI and Xhol restriction enzyme sites in PD-L1, PCR (polymerase chain reaction) was performed, and promoter region DNA was separated by performing electrophoresis on an agarose gel. The pGL4.14-[1uc2/Hygro] vector containing firefly luciferase as a reporter gene was treated with the same restriction enzyme, and separated by agarose gel electrophoresis and gel extraction. The pure isolated PD-L1 promoter gene region and the pGL4.14-[luc2/Hygro] vector were reacted at 50° C. for 1 hour using in-fusion DNA ligase (Takara), followed by E. coli transformation to prepare a promoter-reporter construct into which the […] promoter was inserted, which was named pGL4.14-PD-L1.
To measure the transcriptional activity of the PD-L1 gene promoter, A549 cells were transiently transfected with the PD-L1 promoter-reporter construct as follows, and then the luciferase activity of the cell extract was measured.
The DNA-lipofectamine complex was prepared according to the manufacturer's protocol using 0.1 μtg of promoter-reporter construct plasmid and Lipofectamine 2000 reagent (Invitrogen). Opti-MEM medium (Invitrogen) was used in the process of forming a complex between DNA and Lipofectamine 2000. A549 cells were prepared at 2.5×10^5 cells per well (1 ml) in a 12-well plate by checking the number of cells immediately before adding the DNA. The DNA-lipofectamine complex was carefully mixed with A549 cells and reacted in an incubator at 37° C. for 6 hours. Thereafter, the medium was changed to search for transfected cells, and PD-L1-transfected A549 cells were found through a luciferase test. This was named A549 pGL4.14-PD-L1 cell line and the experiment was conducted. IFNγ (50 ng/ml) was used as a PD-L1 inducer.
The A549 pGL4.14-PD-L1 cell line was treated with the pyrimido pyrimidinone derivatives of Example at concentrations of 0.1 μM and 1.0 μM, respectively, and PD-L1 expression inhibition was evaluated using a luminometer. For comparison, the same experiment was performed for GS9973 (Entospletinib) known to have PD-L1 expression inhibitory activity.
The inhibition rate of PD-L1 expression was calculated by Equation 1 below. PD-L1 expression inhibition rate (%)=100−[(A/B)×100] [Equation 1]
wherein, A is a value when treated with a drug, and B is a value when not treated with a drug.

PD-L1 = assay: Western-blot analysis of PD-L1 in tumors excised from B16F10 mice; parameters: species or system mouse; conditions: tumors extracted from mice after the in vivo test of Experimental Example 2; FIG. 3
From the text: After the in vivo tumor inhibition test using compound 1-8 of Experimental Example 2, the PD-L1 expression inhibition effect in tumor cells extracted from mice was confirmed through Western-blot analysis. For comparison, the efficacy of inhibiting PD-L1 expression in tumor cells extracted from the control mice was also confirmed through Western-blot analysis.
Proteins were identified with the ChemiDoc™ imaging system (Bio-rad) using a chemiluminescence (ECL) kit (elpis biotec, EBP-1073).

melanoma cell = conditions: melanoma model; cited from earlier work
PD-L1 expression [2] = conditions: melanoma model; cited from earlier work
[3] = system: cell surface PD-L1 expression; conditions: kinase inhibitor library screening, melanoma; cited from earlier work

SMILES	inhibition at 0.1 µM (PD-L1 expression [1])	inhibition at 1 µM (PD-L1 expression [1])	also measured
Cc1ncc(NC(=O)c2cccc(C(F)(F)F)c2)cc1N1Cc2cnc(Nc3ccccc3)nc2N(C)C1=O [Compound I-1, N-(6-methyl-5-(1-methyl-2-oxo-7-(phenylamino)-1,2-dihydropyrimido[4,5-d]pyrimidin-3(4H)-yl)pyridin-3-yl)-3-(trifluoromethyl)benzamide]	12.8%	87.1%	–
Cc1ncc(NC(=O)c2cccc(C(C)(C)C)c2)cc1N1Cc2cnc(Nc3ccccc3)nc2N(C)C1=O [Compound I-2, 3-(t-butyl)-N-(6-methyl-5-(1-methyl-2-oxo-7-(phenylamino)-1,2-dihydropyrimido[4,5-d]pyrimidin-3(4H)-yl)pyridin-3-yl)benzamide]	32.6%	72.5%	–
COc1ncc(NC(=O)c2cccc(C(F)(F)F)c2)cc1N1Cc2cnc(Nc3ccccc3)nc2N(C)C1=O [Compound I-3, N-(6-methoxy-5-(1-methyl-2-oxo-7-(phenylamino)-1,2-dihydropyrimido[4,5-d]pyrimidin-3(4H)-yl)pyridin-3-yl)-3-(trifluoromethyl)benzamide]	29.3%	92.5%	–
Cc1ncc(NC(=O)c2ccc(C3=NC(C)(C)CO3)cc2)cc1N1Cc2cnc(Nc3ccccc3)nc2N(C)C1=O [Compound I-4, 4-(4,4-dimethyl-4,5-dihydrooxazol-2-yl)-N-(6-methyl-5-(1-methyl-2-oxo-7-(phenylamino)-1,2-dihydropyrimido[4,5-d]pyrimidin-3(4H)-yl)pyridin-3-yl)benzamide]	20.1%	82.5%	–
Cc1ncc(NC(=O)c2cccc(C3=NC(C)(C)CO3)c2)cc1N1Cc2cnc(Nc3ccccc3)nc2N(C)C1=O [Compound I-5, 3-(4,4-dimethyl-4,5-dihydrooxazol-2-yl)-N-(6-methyl-5-(1-methyl-2-oxo-7-(phenylamino)-1,2-dihydropyrimido[4,5-d]pyrimidin-3(4H)-yl)pyridin-3-yl)benzamide]	19.4%	81.9%	–
COc1ncc(NC(=O)c2cccc(C(C)(C)C)c2)cc1N1Cc2cnc(Nc3ccccc3)nc2N(C)C1=O [Compound I-6, 3-(t-butyl)-N-(6-methoxy-5-(1-methyl-2-oxo-7-(phenylamino)-1,2-dihydropyrimido[4,5-d]pyrimidin-3(4H)-yl)pyridin-3-yl)benzamide]	13.9%	94.1%	–
COc1ncc(NC(=O)c2cccc(C3=NC(C)(C)CO3)c2)cc1N1Cc2cnc(Nc3ccccc3)nc2N(C)C1=O [Compound I-7, 3-(4,4-dimethyl-4,5-dihydrooxazol-2-yl)-N-(6-methoxy-5-(1-methyl-2-oxo-7-(phenylamino)-1,2-dihydropyrimido[4,5-d]pyrimidin-3(4H)-yl)pyridin-3-yl)benzamide]	13.1%	85.3%	–
CN1C(=O)N(c2cc(NC(=O)c3cccc(C(F)(F)F)c3)cnc2Cl)Cc2cnc(Nc3ccccc3)nc21 [Compound I-8, N-(6-chloro-5-(1-methyl-2-oxo-7-(phenylamino)-1,2-dihydropyrimido[4,5-d]pyrimidin-3(4H)-yl)pyridin-3-yl)-3-(trifluoromethyl)benzamide]	60.4%	97.5%	expression of PD-L1 in tumor compared to the control group (Western blot) (PD-L1): reduced
CN1C(=O)N(c2cc(NC(=O)c3cccc(C(C)(C)C)c3)cnc2Cl)Cc2cnc(Nc3ccccc3)nc21 [Compound I-9, 3-(t-butyl)-N-(6-chloro-5-(1-methyl-2-oxo-7-(phenylamino)-1,2-dihydropyrimido[4,5-d]pyrimidin-3(4H)-yl)pyridin-3-yl)benzamide]	48.8%	97.2%	–
CN1C(=O)N(c2cc(NC(=O)c3csc(C(C)(C)C)n3)cnc2Cl)Cc2cnc(Nc3ccccc3)nc21 [Compound I-10, 2-(t-butyl)-N-(6-chloro-5-(1-methyl-2-oxo-7-(phenylamino)-1,2-dihydropyrimido[4,5-d]pyrimidin-3(4H)-yl)pyridin-3-yl)thiazole-4-carboxamide]	67%	98%	–
CN1C(=O)N(c2cc(NC(=O)c3cccc(C(F)(F)F)c3)cnc2Cl)Cc2cnc(Nc3ccc(O)cc3)nc21 [Compound I-11, N-(6-chloro-5-(7-((4-hydroxyphenyl)amino)-1-methyl-2-oxo-1,2-dihydropyrimido[4,5-d]pyrimidin-3(4H)-yl)pyridin-3-yl)-3-(trifluoromethyl)benzamide]	65%	98%	–
c1cn2cc(-c3ccc4cn[nH]c4c3)nc(Nc3ccc(N4CCOCC4)cc3)c2n1 [GS9973(Entospletinib), Entospletinib, reference compound]	10.3%	47.1%	–
O=c1cc(-c2ccc(O)cc2)oc2cc(O)cc(O)c12 [apigenin]	–	–	melanoma cell growth inhibitory effects (melanoma cell): melanoma cell growth inhibitory effects; suppression of PD-L1 expression induced by IFN-γ (PD-L1 expression [2]): significantly suppress
COc1cc(/C=C/C(=O)CC(=O)/C=C/c2ccc(O)c(OC)c2)ccc1O [curcumin]	–	–	melanoma cell growth inhibitory effects (melanoma cell): melanoma cell growth inhibitory effects
CNC(=O)c1cc(Oc2ccc(NC(=O)Nc3ccc(Cl)c(C(F)(F)F)c3)c(F)c2)ccn1 [regorafenib]	–	–	reduction of cell surface PD-L1 expression level [3]: more than 50%
